Assay results reported in patent US10179164B2, “Method for inducing an immune response for treatment of cancer and autoimmune diseases or conditions” (priority 2011, dated 2019).

What was measured:
[1] = test system: C57BL/6 bone marrow cells (monocyte population); test: Flow cytometry of CD11c and CD86 expression on peptide-treated bone marrow cells; type: cell-based, mouse (C57BL/6); details: BM monocyte population by light scatter, second day after treatment; for CD11c expression: PE-anti-CD11c, versus untreated; for CD86 expression: PE-anti-CD86, versus untreated
Protocol: Bone marrow (BM) cells were prepared. Briefly, the femurs and tibias were obtained from five C57BL/6 female mice, and the ends were removed to expose the hollow bone packed with marrow. BM cells were flushed from the bones with cold Hanks Balanced Salt Solution (HBSS) using a sterile disposable 22 g needle and pooled. Red blood cells (RBCs) were lysed using Tris-buffered ammonium chloride and resultant cells were washed 3 times in HBSS, BM cells were suspended in tissue culture medium (TCM) (RPMI 1640 with glutaminic plus […] PenStrep, 50 μM 2-mercaptoethanol, and 5% fetal calf serum) at approximately 5×10^6 cells/ml and incubated for 1 hour at 37° C. in a 5% CO2 atmosphere in plastic tissue culture flasks to remove adherent, mature macrophages. Decanted non-adherent cells were resuspended in TCM and 1.5×10^6 BM cells in 1 ml were placed into each well of a 24 well tissue culture plate (Falcon) and either left untreated or treated with […] of peptide J or JgD LEAPS™ heteroconjugate. After incubation for 48 hrs at 37° C., cells were viewed and photographed for changes in morphology, tissue culture supernatants were removed and the cells were prepared for flow cytometric analysis.
For analysis of CD11c and CD86 expression, untreated and peptide treated BM cells, prepared and treated as described above, were labeled with PE-anti-Cd11c or PE-anti CD86 (Beckman Coulter Fullerton, Calif.) At least […] were analyzed (Altra FACS, Beckman Coulter) using forward and side scatter parameters to limit (gating) the immunofluorescence analysis to cells of the size and granularity of monocytes and dendritic cells.
The monocyte population of BM cells, as defined by light scatter parameters, was analyzed on the second day after treatment with J, gD, JgD or JH.

[2] = test system: IL-12p70; test: Intracellular IL-12p70 flow cytometry of CD3- bone marrow cells; type: cell-based, mouse (C57BL/6); details: CD3- BM cells, PE-anti-IL-12p70
Description: CD3+ cells were removed from BM cells using the fluorescence activated cell sorter and then untreated or treated with JgD, gD or JH. Flow cytometric analysis of the sorted population confirmed the removal of CD3 positive cells. The CD3− BM cells were labeled with FIT C-anti-CD8 (Beckman Coulter (clone 53-6.7)), fixed with paraformaldehyde, permeabilized with saponin (Intraprep, Immunotech), labeled with PE-anti-IL-12p70 (Beckman Coulter) and then post fixed with paraformaldehyde prior to immunofluorescence analysis.

[3] = test system: collagen induced arthritis (CIA) model in DBA/IJ mice; test: Collagen induced arthritis (CIA) model, Arthritis Index; type: in vivo
Protocol: The following study is of CEL-2000 therapeutic vaccine for collagen induced arthritis (CIA) where the first step was to identify a good animal model for testing the vaccine, which is the collagen induced arthritis (CIA) model in young (6-7) week old male DBA/IJ mice. These mice received 2 injections of bovine collagen the first in complete Freund's adjuvant (CFA) on day 0 and then 3 weeks later on day 21, in Incomplete CFA. After the second collagen injection, the mice were evaluated daily for any joint swelling or redness. Each of the paws was scored on a 4 point scale (Arthritis Index (AI) with respect to the number of digits with symptoms and the thickness of the paw measured, at least 3-4 times a week. Each mouse was weighed weekly.
When significant disease is noted, usually about day 28, the mice are grouped (n=8) with a range of scores between 1 and 6 and group mean of 2.5 to 3. At this point the therapy begins according to protocol. Controls include groups with induced disease but no therapy and groups of healthy mice without induced disease. A therapy control of Enbrel® (3 mg/kg, every other day) was included. Over the 28-day course of study, the outcomes of different CEL-2000 and CEL-2003 treatment schedules were compared with Enbrel. In this study, CEL-200 treatment with 2 doses of 33 or 100 nmol were given subcutaneously on days 0 and 7 or on days 0 and 14. CEL-2003 was used at one dose of […] on days 0 and 14. […] The AI score for each paw (4 paws total) were added for each group and reported on FIG. 4.

Sequence | CD11c expression [1] | CD86 expression [1] | IL-12p70 expressing cells [2] | progression of arthritis disease (AI score) ([3]; 100 nmol dose (3x treatment) subcutaneously on days 0 and 7, 28-day study) | progression of arthritis disease compared with Enbrel ([3]; 2 doses of 33 or 100 nmol s.c. on days 0 and 7 or 0 and 14 (most regimes), Enbrel 3 mg/kg every other day for 28 days) | Student t test comparison of treatment groups with Enbrel ([3]; days 7, 14 and 21, 3x dose days 0 and 14, 3x days 0 and 7, 1x days 0 and 7 or 0 and 14)
DLLKNGERIEKVE (listed as Homo sapiens) [J-ICBL, ICBL derived from amino acids 38-50 of the β-2-microglobulin chain of the MHC 1 molecule] | no discernible change | no discernible change | no significant increase | – | – | –
DLLKNGERIEKVEGGGSLKMADPNRFRGKDLP [JgD] | expressed | expressed | – | – | – | –
DLLKNGERIEKVEGGGTGGKPGIAGFKGEQGPKGEP (Heteroconjugate construct) [CEL-2000, Peptide J linked to the human type II collagen peptide 254-273 through a triglycine linker] | – | – | – | appeared to limit the progression of disease throughout the experimental period | at least as good as those of mice treated with Enbrel® | slightly better than Embrel
SLKMADPNRFRGKDLP [gD] | no discernible change | no discernible change | – | – | – | –
